“And” between values parts separate entries of the source, which are not always exact repeats. Equal entries are not always repeated. Marks after values point to notes of the source that are not given here.

Consider 2 molecules from US20250019379A1, “NEW CRYSTAL FORM OF COMPOUND, AND PREPARATION METHOD THEREFOR AND USE THEREOF” (E-nitiate Biopharmaceuticals (Hangzhou) Co., Ltd, priority 2021, published 2025).

In one test the test system is psoriasis animal model. The experiment in a line: Psoriasis animal model (imiquimod cream induced). It is filed as in vivo, C57/BL 6J mice. The settings on record: 30 mg/kg oral twice a day. The text has this: C57/BL 6J mice, 75, female, 7-8 weeks old, weight 18 g-20 g. The animals were from Zhejiang Weitong Lihua Experimental Animal Technology Co., Ltd. (SCXK (Zhejiang) 2019-0001), experimental animal production certificate number 20210107Abzz0619000247; experimental animal use license number: SYXK (Shanghai) 2020-0001 (Via Biotechnology (Shanghai Co., Ltd).
Modeling and administration method: Use depilatory cream to remove hair from an area of about 2 cm×3 cm on the back of each animal. Control the application time of depilatory cream within 2 minutes. Wash the depilated area with warm water, wash off the depilatory agent, and use immediately. Dry the animal's hair with a hair dryer, and place the animal on a constant-temperature electric blanket at 37° C. for 1 h-2 h. After the animal moves freely, it is placed in a cage for normal rearing and recovery for 1 day (if any animal has red, swollen and damaged skin after hair removal, remove it). On the second day, 54 animals with normal skin were selected and randomly grouped according to body weight, with 9 animals in each group, a total of 6 groups. Each animal in the G2-G6 group was evenly applied with 60 mg (60 μL) of 5 wt % imiquimod cream (Aldara) on the back every day for seven consecutive days.
Skin thickness (double-layer): Use a vernier caliper to measure the double-layer thickness of the back skin before drug administration and modeling, and on days 1, 3, 5, and 7 after drug administration.
PASI score: The condition score refers to the clinical PASI scoring standard, and scores three indicators: erythema, scale, and thickness. The total score is 12 points. The scoring standards are as follows:
Erythema: 0 points, none; 1 points, slight: light red; 2 points, moderate: red; 3 points, significant: dark red; 4 points, very obvious: extremely deep red.
Scaling: 0 points, none; 1 point, slight: there are scales on part of the epidermis, mainly fine scales; 2 points, moderate: most of the skin surface is completely or incompletely covered with scales, in a flaky form; 3 points, Significant: almost all skin is covered with scales, and the scales are thick and layered; 4 points, very obvious: all the skin is covered with scales, and the scales are thick and layered.
Plaque thickening degree: 0 points, none: flush with normal skin; 1 points, slight: slightly higher than the skin surface: 2 points, moderate: moderately raised, with round or sloped plaque edges; 3 points, obvious Score: The plaque is hypertrophic and the bulge is obvious; 4 points, very significant: it is highly thickened and the bulge is very obvious.
Skin proliferation inhibition rate (%)=1−[(skin thickness of the treatment group on the 7th day−skin thickness of the blank control group on the 7th day)/skin thickness of the negative control group on the 7th day−skin thickness of the blank control group on the 7th day)]%.
All data are expressed as Mean t SEM. The statistical analysis software SPSS23.0 was used to conduct normal distribution and homogeneity of variance tests on the data. Based on the results, the single-factor analysis of variance method was selected and the homogeneity of variance test was selected based on the results. *P<0.05 will be considered a statistically significant difference.

The subject of test [1] is atopic dermatitis animal model. Nature of the test: Atopic dermatitis animal model (dinitrochlorobenzene induced). Format: in vivo, BALB/C mice. The settings on record: for Inhibition rate of auricular thickening / Inhibition rate of skin thickening: 10th day of treatment. The text has this:
BALB/C mice, 55 pieces, female, were 6 weeks old at the time of purchase and 8 weeks old at the time of experiment, weighing 18 g-20 g. The animals were from Shanghai Lingchang Biotechnology Co, Ltd (SCXK (Shanghai) 2018-0003), experimental animal production certificate number 20180003012342: experimental animal use license number; SYXK(Shanghai)2020-0001 (Via Biotechnology (Shanghai) Ltd.).
Modeling and administration method; Use depilatory cream to remove the hair of an area of about 5 cm×2 cm from the top of the head to the back of each animal. The application time of the depilatory cream should be controlled within 2 minutes. Wash the depilated area with warm water and wash off the depilatory agent, immediately use a hair dryer to dry the animal's hair, and place the animal on a 37° C. constant-temperature electric blanket for 1 h-2 h. After the animal moves freely, place it in a breeding cage and recover for 1 day (if the animal's skin is red, swollen and damaged after hair removal, it will its elimination). On the second day, 42 animals with normal skin were selected and randomly divided into groups according to body weight, with 6 animals in each group, totaling 7 groups. Except for the G1 normal control group, each animal in the other groups was evenly smeared with 200 μL of 0.5 wt % dinitrochlorobenzene solution (the solvent was acetone and olive oil with a mass ratio of 3:1) on the back and auricle for three consecutive days every day. Induction (the first stage of induction), the second stage of induction started after 14 days, and was induced with 1 wt % dinitrochlorobenzene solution (the solvent was acetone and olive oil with a mass ratio of 3:1) every three days until the end of the experiment, start treatment and administration at the same time, and group administration is shown in Table 6.
Skin thickness (double layer): Use a vernier caliper to measure the double layer thickness of the back skin on the 1 day before modeling, and on the 14th, 17th, 20th, 23rd, 26th, and 28th days after modeling.
Auricle thickness: Use a vernier caliper to measure the thickness of the right auricle 1 day before modeling, and on days 14, 17, 20, 23, 26, and 28 after modeling.
AD-SI score: The condition score refers to the clinical SI scoring standard, and scores three indicators: skin color/erythema, scaly erythema, scaly/peeling/lichenification, thickening, and thickening/edema degree. The total score is 12 points. Scoring standard as follows:
Erythema/skin color: 0 points, none; 1 points, slight: light red; 2 points, moderate: red; 3 points, significant: dark red; 4 points, very obvious: extremely deep red.
Scaling/peeling/lichenification: 0 points, none; 1 point, slight: there are scales/peeling/lichenification on part of the epidermis, mainly subtle; 2 points, moderate: most of the skin surface is completely or incompletely covered with Scaling/peeling/lichenification, flaky; 3 points, significant: almost all skin is covered with scales/peeling/lichenification, and the scales/peeling/lichenification are thick and layered; 4 points, very obvious: all skin is covered with Scaling/peeling/lichenification, very thick and layered.
Thickening/edema: 0 points, none: flush with normal skin; 1 points, slight: slightly higher than the normal skin surface: 2 points, moderate: moderately raised, with round or sloped plaque edges: 3 points, obvious Score: The plaque is hypertrophic and the bulge is obvious; 4 points, very significant: it is highly thickened and the bulge is very obvious. Skin/auricle hyperplasia inhibition rate (%)=1−[(skin/auricle thickness of the treatment group−skin/auricle thickness of the blank control group)/skin/auricle thickness of the negative control group−skin/auricle of the blank control group thickness)]%.
All data are expressed as Mean±SD or Mean±SEM. Use the statistical analysis software SPSS23.0 to conduct normal distribution and homogeneity of variance tests on the data. […]

Setting [2] is: 30 mg/kg oral twice a day, Day 0.
The mark [3] stands for this setting: 30 mg/kg oral twice a day, Day 1.
Where [4] appears, read: 30 mg/kg oral twice a day, Day 4.
[5] abbreviates: 30 mg/kg oral twice a day, Day 7.
The mark [6] stands for this setting: 30 mg/kg oral twice a day, Day 10.
The mark [7] stands for this setting: 10 mg/kg oral twice a day, Day 0.
The mark [8] stands for this setting: 10 mg/kg oral twice a day, Day 1.
[9] abbreviates: 10 mg/kg oral twice a day, Day 4.
Setting [10] is: 10 mg/kg oral twice a day, Day 7.
Where [11] appears, read: 10 mg/kg oral twice a day, Day 10.

`C[C@@H]1CCN(C(=O)CC#N)C[C@@H]1N(C)c1ncnc2[nH]ccc12` [Tofacitinib, reference compound]: the “Inhibition rate of skin thickening” value in the test with psoriasis animal model (7th day of treatment) amounted to 69.2%; in test [1] (30 mg/kg oral twice a day), 27.86%. Further, the “Average skin thickness (double layer)” value in the test on psoriasis animal model (Day 0) is 0.51 ± 0.01 mm; with psoriasis animal model (Day 1), 0.66 ± 0.02 mm; with psoriasis animal model (Day 3), 1.28 ± 0.09** mm; in the test on psoriasis animal model (Day 5), 1.09 ± 0.06*** mm; with psoriasis animal model (Day 7), 1.05 ± 0.04*** mm and 1.05 mm; in test [1] (setting [2]) it was 0.63 ± 0.03 mm. Also, the “Average skin thickness (double layer)” value in test [1] (setting [3]) was 0.99 ± 0.03 mm; in test [1] (setting [4]), 1.13 ± 0.1 mm; in test [1] (setting [5]) it was 1.78 ± 0.11 mm; in test [1] (setting [6]), 2.08 ± 0.13 mm and 2.08 mm. Also, the PASI score in the test on psoriasis animal model (Day 0) is 0.0 points; with psoriasis animal model (Day 1), 0.0 points; in the test with psoriasis animal model (Day 3), 4.6 ± 0.50 points; in the test on psoriasis animal model (Day 5), 4.9 ± 0.42*** points; with psoriasis animal model (Day 7), 2.8 ± 0.43*** points. Moreover, the “Inhibition rate of auricular thickening” value in test [1] (30 mg/kg oral twice a day) worked out at 25.86%. The AD-SI score in test [1] (setting [2]) worked out at 0.00 points; in test [1] (setting [3]), 0.00 points; in test [1] (setting [4]), 0.17 ± 0.41 points; in test [1] (setting [5]), 7.17 ± 0.98 points; in test [1] (setting [6]) it was 6.33 ± 1.37 points. Also, the Average auricle thickness in test [1] (setting [2]) is 0.19 ± 0.01 mm; in test [1] (setting [3]), 0.22 ± 0.01 mm; in test [1] (setting [4]) it was 0.28 ± 0.01 mm; in test [1] (setting [5]), 0.44 ± 0.03 mm; in test [1] (setting [6]) it was 0.64 ± 0.05 mm and 0.64 mm.
Take `CC[C@@H]1CN(C(=O)NCC(F)(F)F)C[C@@H]1c1cnc2cnc3[nH]ccc3n12` [Upatinib, Upadacitinib, reference compound]: in test [1] (10 mg/kg oral twice a day), the “Inhibition rate of auricular thickening” value is given as 24.14%. The “Inhibition rate of skin thickening” value in test [1] (10 mg/kg oral twice a day) is recorded as 20.40%. Moreover, the AD-SI score in test [1] (setting [7]) was determined as 0.00 points; in test [1] (setting [8]) it was 0.00 points; in test [1] (setting [9]), 1.00 ± 0.00 points; in test [1] (setting [10]) it was 6.50 ± 1.05 points; in test [1] (setting [11]) it was 7.17 ± 1.47 points. The Average auricle thickness in test [1] (setting [7]) is 0.20 ± 0.01 mm; in test [1] (setting [8]), 0.24 ± 0.01 mm; in test [1] (setting [9]) it was 0.32 ± 0.03**^ mm; in test [1] (setting [10]) it was 0.51 ± 0.05 mm; in test [1] (setting [11]), 0.65 ± 0.03 mm and 0.65 mm. The “Average skin thickness (double layer)” value is 0.60 ± 0.02 mm in test [1] (setting [7]); 0.89 ± 0.04 mm in test [1] (setting [8]); 1.07 ± 0.05 mm in test [1] (setting [9]); 2.06 ± 0.25 mm in test [1] (setting [10]); 2.23 ± 0.14 mm and 2.23 mm in test [1] (setting [11]).
